Experiments:
Format in all cases: cell-based, murine
[1] = system: LPS-stimulated production of nitric oxide (NO) in RAW 264.7 cell; assay: Inhibition of LPS-induced NO (nitrite) production in RAW264.7 cells, Griess reaction; conditions: RAW 264.7 cells, LPS 100 ng/mL, 24 h, nitrite by Griess, mean ± SD of three replicates
Description: NO, produced from L-arginine by NO synthase, has various biological actions, e.g., as a defense and regulatory molecule for homeostatic equilibrium. However, in pathophysiologic conditions, such as inflammation, there is an increased production of NO by inducible NO synthase (iNOS). Macrophages have been expected to be an origin of inflammation, because they contain various chemical mediators that may be responsible for several inflammatory stages. The inhibitory activity toward NO production, induced by lipopolysaccharides (LPS), by murine macrophage-derived RAW264.7 cells, was assayed.
(§1) A murine macrophage cell line RAW264.7 (BCRC No. 60001) was purchased from the Bioresources Collection and Research Center (BCRC) of the Food Industry Research and Development Institute (Hsinchu, Taiwan). Cells were cultured in plastic dishes containing Dulbecco’s Modified Eagle Medium (DMEM, Sigma, St. Louis, MO, USA) supplemented with 10% fetal bovine serum (FBS, Sigma, St. Louis, MO, USA, USA) in a CO2 incubator (5% CO2 in air) at 37 °C and subcultured every 3 days at a dilution of 1:5 using 0.05% trypsin-0.02% EDTA in Ca^2+-, Mg^2+-free phosphate-buffered saline (DPBS).
NO production was indirectly assessed by measuring the nitrite levels in the cultured media and serum determined by a colorimetric method based on the Griess reaction. The cells were incubated with butanolides (0, 3.125, 6.25, 12.5, 25 and 50 μg/mL) in the presence of LPS (100 ng/mL) at 37 °C for 24 h. Then, cells were dispensed into 96-well plates, and 100 μL of each supernatant was mixed with the same volume of Griess reagent (1% sulfanilamide, 0.1% naphthyl ethylenediamine dihydrochloride and 5% phosphoric acid) and incubated at room temperature for 10 min; the absorbance was measured at 540 nm with a Micro-Reader (Molecular Devices Orleans Drive, Sunnyvale, CA, USA). Serum samples were diluted four times with distilled water and deproteinized by adding 1/20 volume of zinc sulfate (300 g/L) to a final concentration of 15 g/L. After centrifugation at 10,000× g for 5 min at room temperature, 100 μL supernatant was applied to a microtiter plate well, followed by 100 μL of Griess reagent. After 10 min of color development at room temperature, the absorbance was measured at 540 nm with a Micro-Reader. By using sodium nitrite to generate a standard curve, the concentration of nitrite was measured form absorbance at 540 nm.
(§2) IC50 values were estimated using a non-linear regression algorithm (SigmaPlot 8.0; SPSS Inc., Chicago, IL, USA, 2002). Statistical evaluation was carried out by one-way analysis of variance (ANOVA followed by Scheffe’s multiple range tests).

[2] = Cell viability (MTT) of RAW264.7 cells in the presence of LPS; conditions: mouse, RAW264.7 macrophage cells, RAW 264.7 cells, 100 ng/mL LPS, mean ± SD of three replicates, read-out: Cytotoxicity IC50
Experimental: as §1
(§3) Cells (2 × 105) were cultured in 96-well plate containing DMEM supplemented with 10% FBS for 1 day to become nearly confluent. Then cells were cultured with compounds 1–5 in the presence of 100 ng/mL LPS (lipopolysaccharide) for 24 h. After that, the cells were washed twice with DPBS and incubated with 100 μL of 0.5 mg/mL MTT for 2 h at 37 °C testing for cell viability. The medium was then discarded, and 100 μL dimethyl sulfoxide (DMSO) was added. After 30-min incubation, the absorbance at 570 nm was read using a microplate reader (Molecular Devices, Sunnyvale, CA, USA).
as §2

[3] = system: RAW264.7 cells; assay: as above; conditions: RAW 264.7 cells, 100 ng/mL LPS, 24 h, mean ± SD of three replicates, read-out: Cytotoxicity IC50
Experimental: as §1, §3, §2

Row | Molecule | IC50 ([1]; Mus musculus, RAW264.7) [µM] | IC50 at 24 h [2] [µM] | IC50 [1] [µM] | IC50 [3] [µM]
1 | CCCCCCCCCC/C=C/[C@@H]1C(=O)O[C@@H](C)[C@H]1O [Compound 1, 3α-((E)-Dodec-1-enyl)-4β-hydroxy-5β-methyldihydrofuran-2-one] | 20.1 ± 0.3 | 78 ± 5.1 |  | 
2 | CCCCCCCCCCC/C=C1\C(=O)O[C@@H](C)[C@H]1O [Compound 2, 3-epilistenolide D1] | 4.1 ± 0.1 | 32.6 ± 0.5 |  | 
3 | CCCCCCCCCCC/C=C1/C(=O)O[C@@H](C)[C@H]1O [Compound 3, 3-epilistenolide D2] | 4.5 ± 0.1 | 27.7 ± 1.6 |  | 
4 | C#CCCCCCCCCC/C=C1\C(=O)O[C@@H](C)[C@@H]1O [Compound 4, (3Z,4α,5β)-3-(dodec-11-ynylidene)-4-hydroxy-5-methylbutanolide] | 21.7 ± 0.4 | 139 ± 2.8 |  | 
5 | C#CCCCCCCCCC/C=C1/C(=O)O[C@@H](C)[C@H]1O [Compound 5, (3E,4β,5β)-3-(dodec-11-ynylidene)-4-hydroxy-5-methylbutanolide] | 33.4 ± 1 | 143 ± 1.9 |  | 
6 | C[C@@H]1O[C@@H](Oc2c(-c3ccc(O)cc3)oc3cc(O)cc(O)c3c2=O)[C@H](O)[C@H](O)[C@H]1OC(=O)/C=C\c1ccc(O)cc1 [Compound 12, kaempferol 3-O-α-L-(4″-Z-p-coumaroyl) rhamnoside] | 67.9 ± 1.9 | > 86.5 |  | 
7 | C[C@@H]1O[C@@H](Oc2c(-c3ccc(O)cc3)oc3cc(O)cc(O)c3c2=O)[C@H](O)[C@H](O)[C@H]1OC(=O)/C=C/c1ccc(O)cc1 [Compound 13, 4″-p-coumaroylafzelin] | 76.9 ± 7.3 | > 86.5 |  | 
8 | (+)-pinoresinol [Compound 9] |  |  | 90.4 ± 8.6 | > 279

Further lines, with some results ahead:

Row | IC50 ([1]; Mus musculus, RAW264.7) [µM] | Molecule | IC50 at 24 h [2] [µM] | IC50 [1] [µM] | IC50 [3] [µM]
9 | 196 ± 4 | COc1cc(CC2COCC2Cc2ccc3c(c2)OCO3)ccc1O (stereo not shown) [Compound 6, linderinol] | > 292 |  | 
10 | 179 ± 12.1 | COc1cc(C[C@H]2COC(=O)[C@@H]2Cc2ccc(O)c(OC)c2)ccc1O [Compound 7, matairesinol] | > 279 |  | 
11 | 49.7 ± 4.5 | COc1cc([C@H]2OC[C@H]3[C@@H]2CO[C@@H]3c2cc(OC)c(O)c(OC)c2)cc(OC)c1O [Compound 8, syringaresinol] | > 239 |  | 
12 | 312 ± 14.1 | COc1cc(C2OCC3C(=O)OCC32)ccc1O (stereo not shown) [Compound 10, salicifoliol] | > 400 |  | 
13 | 62.5 ± 2.2 | COc1ccc(-c2oc3cc(O)cc(O)c3c(=O)c2OC2OC(C)C(OC(=O)C=Cc3ccc(O)cc3)C(O)C2O)cc1 [Compound 11, 4′-O-methylkaempferol 3-O-α-L-(4″-E-p-coumaroyl)rhamnoside] | > 84.5 |  | 
14 | 414 ± 6.9 | Oc1cc(O)c2c(c1)O[C@H](c1ccc(O)c(O)c1)[C@@H](O)C2 [Compound 14, catechin] | > 517 |  | 
15 | 352 ± 37.4 | Oc1cc(O)c2c(c1)O[C@H](c1ccc(O)c(O)c1)[C@H](O)C2 [Compound 15, epicatechin] | > 517 |  | 
16 | 183 ± 5.5 | COc1ccc2c(c1)c(CC(=O)O)c(C)n2C(=O)c1ccc(Cl)cc1 [indomethacin, reference compound] |  |  | 
